These results are taken from US9522921B2, “Photochromic spirooxazine compounds” (Sabic Global Technologies, B.V., priority 2015, dated 2016).

This series is described as follows: Absorption spectrum in toluene upon irradiation with UV-A radiation. The format is physicochemical. An excerpt: The properties of the compound characterized by Structure A were investigated.

Turning to `CN1c2ccccc2C(C)(C)C12C=Nc1cc(N(c3ccccc3)c3ccc4ccccc4c3)c3ccccc3c1O2` (centres unmarked) [Structure A, 1,3,3-trimethyl-N-(naphthalen-2-yl)-N-phenylspiro[indoline-2,2′-naphtho[1,2-b][1,4]oxazin]-6′-amine], the “color displayed upon irradiation” value (upon irradiation with UV-A radiation) is “bluish-green color”. For the setting “upon irradiation with UV-A radiation (open merocyanine form)”, this compound gave a maximum absorption of 658 nm.
